Experiments:
Z-138 cells = test: Inhibitory activity on tumor cell proliferation (Cell-Titer Glo, 8 days); format: cell-based; settings: Homo sapiens, 192 h, read-out: Inhibition of cell proliferation Z-138 IC50
Procedure: Materials and cells: Z-138 cells were purchased from ATCC (USA); IMDM medium and penicillin-streptomycin were purchased from Sigma PLC. (USA); horse serum was purchased from Hyclone (USA); 96-well plate was purchased from Corning (USA); and Cell-Titer Glo reagent was purchased from Promega (USA).
Cell culture: Z-138 cells were cultured in an IMDM culture solution containing 10% Horse serum+1% penicillin−streptomycin at 37° C., 5% CO2. Cells in logarithmic growth phase were suitable for the experiment.
Detection of cell proliferation activity: The inhibitory activities of the compounds on the proliferation of Z-138 cells were detected by using the Cell-Titer Glo reagent. The concentrations of the cells were adjusted, and 180 μL was inoculated in each well of the 96-well plate (500/well) and equilibrated for 10-15 minutes at 37° C., 5% CO2. 20 μL of a culture solution containing the compounds was added into each well with the final concentration reaching 0-300 nM (initial concentration: 300 nM, 3-fold dilution, for 10 points), and the DMSO content was 0.1%. The cell plate was placed at 37° C., 5% CO2 and incubated for 8 days. Culture solution was replaced at day 4: 100 μL of the supernatant was slowly aspirated and 100 μL of a fresh culture solution containing the compounds was provided as a supplement while the concentrations of the compounds were held constant. The cell viability was detected by using the Cell-Titer Glo reagent.

[1] = Pharmacokinetic experiment in mice; format: in vivo, CB17-SCID mice
Excerpt: Experimental materials: GB17-SCID mice were purchased from Beijing Vital River Laboratory Animal Technology Co., Ltd.; DMSO, HP-β-CD (Hydroxypropyl-β-cyclodextrin), MC (methyl cellulose) and acetonitrile were purchased from Merck & Co., Inc. (USA), and K2EDTA anticoagulation tubes were purchased from Jiangsu Xinkang Medical Instrument Co., Ltd.
Experiment method: Six female CB17-SCID mice (20-30 g, 4-6 weeks) were randomized into 2 groups, 3 mice/group. Group 1 was given compound 002 via tail vein injection at a dose of 2 mg/kg, and the vehicle was 5% of DMSO+95% of 10% HP-β-CD aqueous solution; and group 2 was given compound 002 orally at a dose of 10 mg/kg, and the vehicle was 0.5% MC aqueous solution. Prior to the experiment, the animals were given food and water as usual. At pre-dose and 0.083 (only for the vein injection group), 0.25, 0.5, 1, 2, 4, 6, 8 and 24 h post-dose, blood was sampled from the mice in each group from the vein. The whole blood sample collected was placed in a K2EDTA anticoagulation tube and centrifuged for 5 min (4000 rpm, 4° C.) and then the plasma was taken for detection.
10 μL of the mouse plasma sample was taken and 150 μL of acetonitrile solvent (wherein internal standard compound was contained) was added to precipitate proteins. After the mixture was vortexed for 0.5 min, centrifugation (4700 rpm, 4° C.) was performed for 15 min. The supernatant was diluted 2-fold with water containing 0.05% (v/v) formic acid and 3 μL was injected into the LC-MS/MS system (AB Sciex Triple Quad 6500+) for the quantitative detection. The concentrations of the samples were determined with the present of plasma standard curve (linear range: 0.5-1000 ng/mL) of CB17-SCID mice and quality control samples. For the preparation of 10-fold diluted samples, 2 μL of mouse plasma sample was taken and 18 μL of blank plasma was added. After the mixture was vortexed for 0.5 min, 300 μL of acetonitrile solvent (wherein internal standard compound was contained) was added to precipitate proteins. The other processing steps were identical to those for the samples not diluted.

PRMT5/MEP50 = target: T1, PRMT5/MEP50 (Homo sapiens, UniProt O14744); test: PRMT5 enzymatic activity inhibition experiment (AlphaScreen); format: biochemical
T1 construct: purchased BPS Bioscience Inc. (USA)
T1 sequence (O14744 2-637 limits assumed): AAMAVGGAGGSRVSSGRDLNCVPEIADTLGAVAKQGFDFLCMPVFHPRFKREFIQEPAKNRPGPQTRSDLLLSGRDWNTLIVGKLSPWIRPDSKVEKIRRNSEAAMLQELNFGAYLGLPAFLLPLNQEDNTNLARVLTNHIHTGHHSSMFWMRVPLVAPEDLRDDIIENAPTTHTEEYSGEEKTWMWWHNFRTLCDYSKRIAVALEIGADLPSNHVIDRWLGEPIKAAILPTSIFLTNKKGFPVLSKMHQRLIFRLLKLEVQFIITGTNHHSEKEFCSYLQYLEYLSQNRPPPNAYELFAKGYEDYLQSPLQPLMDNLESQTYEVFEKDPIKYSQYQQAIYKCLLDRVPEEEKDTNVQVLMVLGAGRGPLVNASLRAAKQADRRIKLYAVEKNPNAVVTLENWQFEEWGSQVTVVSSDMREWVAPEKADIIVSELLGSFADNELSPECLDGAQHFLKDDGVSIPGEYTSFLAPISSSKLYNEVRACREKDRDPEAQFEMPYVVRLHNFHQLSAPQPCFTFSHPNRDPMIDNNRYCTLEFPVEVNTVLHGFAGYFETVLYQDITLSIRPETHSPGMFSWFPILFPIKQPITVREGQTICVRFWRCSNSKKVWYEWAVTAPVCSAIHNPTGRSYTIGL
T1 sequence (Q9BQA1 2-342 partner limits assumed): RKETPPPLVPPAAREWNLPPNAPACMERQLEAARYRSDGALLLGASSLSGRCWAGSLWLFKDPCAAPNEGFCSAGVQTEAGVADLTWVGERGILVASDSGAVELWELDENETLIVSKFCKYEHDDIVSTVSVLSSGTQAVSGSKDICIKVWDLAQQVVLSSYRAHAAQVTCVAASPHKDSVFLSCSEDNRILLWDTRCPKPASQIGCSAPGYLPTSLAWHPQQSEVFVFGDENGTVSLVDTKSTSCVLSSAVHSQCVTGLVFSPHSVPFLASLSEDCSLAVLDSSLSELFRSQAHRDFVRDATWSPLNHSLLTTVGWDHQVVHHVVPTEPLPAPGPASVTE
Excerpt: Materials: PRMT5/MEP50 proteins were purchased from BPS Bioscience Inc. (USA); Histone H4 Peptide substrate was purchased from Sangon Biotech (Shanghai) Co., Ltd.; Anti-Histone H4 (symmetric dimethyl R3) antibody—ChIP Grade was purchased from Abcam PLC. (USA); S-(5′-Adenosyl)-L-methionine chloride dihydrochloride was purchased from Sigma PLC. (USA); 384-well plate, AlphaScreen Streptavidin Donor beads, AlphaScreen Protein A Acceptor beads, and Envision 2104 multi-label Reader were purchased from Perkin-Elmer Instruments (USA) Corporation; and Echo 550 Liquid Handler was purchased from Labcyte Inc. (USA).
Enzymatic activity assay: The compounds were added into a 384-well plate by using the Echo 550 Liquid Handler with the final concentration of 0-1000 nM (initial concentration: 1000 nM, 3-fold dilution, for 10 points), and the DMSO content was 0.5%. 10 μL of a 2× PRMT5/MEP50 solution was added into each well and incubated at room temperature for 30 minutes. 10 μL of 2× PRMT5/MEP50 substrate solution was added to each well to start the reaction and incubated at room temperature for 60 minutes. A 6× detection reagent containing AlphaScreen Protein A Acceptor beads and Anti-Histone H4 (symmetric dimethyl R3) antibodies was prepared and 5 μL was added to each well. The plate was incubated at room temperature for 60 minutes. A 6× detection reagent containing AlphaScreen Streptavidin Donor beads was prepared and 5 μL was added to each well. The plate was incubated at room temperature for 60 minutes. The signal values were detected by using the Envision.

[2] = female, CB17-SCID, mouse, plasma, 10 mg/kg, Mice PO (10 mpk)

CCN1CCN(C[C@@H](O)[C@@H]2Cc3ccccc3CN2)C(=O)c2ccc(C(=O)N3CCC4(CC3)CC(OC)C4)cc21.Cl [Compound 002, 1-ethyl-4-((R)-2-hydroxy-2-((S)-1,2,3,4-tetrahydroisoquinolin-3-yl)ethyl)-8-(2-methoxy-7-azaspiro[3.5]nonane-7-carbonyl)-1,2,3,4-tetrahydro-5H-benzo[e][1,4]diazepin-5-one hydrochloride]
IC50 (Z-138 cells): 2.19 nM
Cl_obs ([1]; Mice IV (2 mpk)): 61.1 ± 6.2 mL/min/kg
F ([1]; Mice PO (10 mpk)): 96.5 ± 20.5%
half-life ([1]; female, CB17-SCID, mouse, plasma, 2 mg/kg, Mice IV (2 mpk)): 3.56 ± 0.55 h
Vd ([1]; female, CB17-SCID, mouse, plasma, 2 mg/kg, Mice IV (2 mpk), read-out: Vss—obs): 8.2 ± 0.6 L/kg
AUC(0-t) [1, 2]: 2650 ± 563 ng·h/mL
Cmax [1, 2]: 827 ± 79 ng/mL
Tmax [1, 2]: 0.33 ± 0.14 h
half-life [1, 2]: 2.68 ± 0.2 h
IC50 (PRMT5/MEP50): 4.05 nM

— US20230250108A1, “TETRAHYDROISOQUINOLINE COMPOUNDS AND USE THEREOF” (JIANGSU SIMCERE PHARMACEUTICAL CO., LTD., priority 2020, published 2023)
